Results as given in patent EP2140864A2 (H. Lundbeck A/S, priority 2001, dated 2002).
pKi: −log10 of the molar value.

Biological target: T1, human GAL3 receptor (Homo sapiens, UniProt O60755)
T1 construct: expressed in transfected cells
T1 sequence (O60755 1-368): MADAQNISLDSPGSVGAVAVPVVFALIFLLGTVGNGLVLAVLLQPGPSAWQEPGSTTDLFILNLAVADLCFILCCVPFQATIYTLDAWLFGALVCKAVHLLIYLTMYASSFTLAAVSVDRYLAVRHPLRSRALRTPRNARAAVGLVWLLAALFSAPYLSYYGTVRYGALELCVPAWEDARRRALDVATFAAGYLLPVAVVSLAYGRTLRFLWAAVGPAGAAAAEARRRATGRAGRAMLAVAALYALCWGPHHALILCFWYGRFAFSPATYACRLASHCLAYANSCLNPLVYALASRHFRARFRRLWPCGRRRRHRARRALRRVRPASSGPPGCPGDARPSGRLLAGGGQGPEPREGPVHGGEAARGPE
Test: Radioligand binding at cloned human GAL3 receptor
Details: indolones, cloned human receptor; read-out: Ki GalR3
Protocol: The present invention provides for a method of determining the binding affinity of a GAL3 antagonist, wherein the GAL3 antagonist is dissolved in a "suitable solvent". A "suitable solvent" means one which permits the measurement of binding affinity of the GAL3 antagonist to the human GAL3 receptor at concentrations less than 1 µM, preferably less than 100 nM. Examples of solvents include, but are not limited to, DMSO, ethanol, N,N-dimethylacetamide, or water. For indolones, the preferred solvent is 3% DMSO (final concentration in the assay). For pyrimidines, the preferred solvent is 1% ethanol/0.09% polypuronic acid F-127 (final concentration in the assay). For any other type of compounds, the preferred solvent is the solvent which permits the measurement of binding affinity of a GAL3 antagonist at the lowest concentration. Once a suitable solvent is ascertained for the binding assay of the human GAL3 receptor, the same solvent is used in assays to determine the binding affinity at the GAL1 receptor, the serotonin transporter, the norepinephrine transporter, and the dopamine transporter. A solvent of 0.4% DMSO is used in the central monoamine oxidase enzyme assay.
The binding properties of the pyrimidines of the present invention were evaluated at the cloned human galanin receptors, GAL1, GAL2, and GAL3, using protocols described herein.
The binding properties of the indolones of the present invention were evaluated at the cloned human galanin receptors, GAL1, GAL2, and GAL3, using protocols described herein.
LM(tk-) cells were stably transfected with the human GAL1 or GAL3 receptor. CHO cells were stably transfected with the human GAL2 receptor.
cDNAs for the human and rat GAL1, and human and rat GAL3 receptors were transfected with a G-418 resistant gene into the mouse fibroblast LM(tk-) cell line by a calcium phosphate transfection method (Cullen, 1987). Stably transfected cells were selected with G-418. Human and rat GAL2 receptors were similarly transfected into CHO cells.
Membranes were harvested from stably transfected LM(tk-) cells. Adherent cells were washed twice in ice-cold phosphate buffered saline (138 mM NaCl, 8.1 mM Na2HPO4, 2.5 mM KCl, 1.2 mM KH2PO4, 0.9 mM CaCl2, 0.5 mM MgCl2, pH 7.4) and lysed by sonication in ice-cold sonication buffer (20 mM Tris-HCl, 5 mM EDTA, pH 7.7). Large particles and debris were cleared by low speed centrifugation (200 x g, 5 min, 4°C). Membranes were collected from the supernatant fraction by centrifugation (32,000 x g, 18 min, 4°C), washed with ice-cold hypotonic buffer, and collected again by centrifugation (32,000 x g, 18 min, 4°C). The final membrane pellet was resuspended by sonication into a small volume of ice-cold binding buffer (-1 ml for every 5 plates: 10 mM NaCl, 20 mM HEPES, 0.22 mM KH2PO4, 1.26 mM CaCl2, 0.81 mM MgSO4, pH 7.4). Protein concentration was measured by the Bradford method (Bradford, 1976) using Bio-Rad Reagent, with bovine serum albumin as a standard. Membranes were held on ice for up to one hour and used fresh, or flash frozen and stored in liquid nitrogen. Membranes were prepared similarly from CHO cells.
Galanin Recentors: Binding assays were performed according to the following published methods: human GAL3 (PCT International Publication No. WO 98/15570), human GAL1 (PCT International Publication No. WO 95/2260), human GAL2 (PCT International Publication No. WO 97/26853).
Binding data were analyzed using nonlinear regression and statistical techniques available in the GraphPAD Prism package (San Diego, CA). Enzymatic assay data were derived from a standard curve of reference compound data.

pKi	Compound
6.82	COc1ccc2c(c1)N(c1ccccc1)C(=O)/C2=N\c1cccc(Cl)c1 [Example 302, (3Z)-3-[(3-CHLOROPHENYL)IMINO]-6-METHOXY-1-PHENYL-1,3-DIHYDRO-2H-INDOL-2-ONE]
5.63	O=C1C(=Nc2ccc3[nH]ccc3c2)c2ccccc2N1c1ccccc1 (mixture of isomers) [Example 112, 3-(1H-INDOL-5-YLIMINO)-1-PHENYL-1,3-DIHYDRO-2H-INDOL-2-ONE]
6.48	O=C1/C(=N\c2cccc3ncccc23)c2ccccc2N1c1ccccc1 [Example 282, (3Z)-1-PHENYL-3-(5-QUINOLINYLIMINO)-1,3-DIHYDRO-2H-INDOL-2-ONE]
7.31	Cc1noc(C)c1CN1C(=O)/C(=N\c2ccc(Cl)c(Cl)c2)c2ccccc21 [Example 255]
7.23	Cc1ccc(C(F)(F)F)cc1/N=C1\C(=O)N(c2ccccc2)c2ccccc21 [Example 289, (3Z)-3-{[2-METHYL-5-(TRIFLUOROMETHYL)PHENYL]IMINO}-1-PHENYL-1,3-DIHYDRO-2H-INDOL-2-ONE]
6.82	CCn1c2ccccc2c2cc(/N=C3\C(=O)N(c4ccccc4)c4ccccc43)ccc21 [Example 281, (3Z)-3-[(9-ETHYL-9H-CARBAZOL-3-YL)IMINO]-1-PHENYL-1,3-DIHYDRO-2H-INDOL-2-ONE]
7.01	O=C1/C(=N\c2cccc(C(F)(F)F)c2)c2cc(-c3ccccc3)ccc2N1c1ccccc1 [Example 308]
7.48	O=C1/C(=N\c2ccc(I)cc2)c2ccccc2N1c1ccccc1 [Example 283, (3Z)-3-[(4-IODOPHENYL)IMINO]-1-PHENYL-1,3-DIHYDRO-2H-INDOL-2-ONE]
6.87	Cc1ccc(/N=C2\C(=O)N(c3ccsc3)c3ccccc32)cc1 [Example 263]
6.87	O=C1C(=Nc2ccc(Cl)nc2)c2ccccc2N1c1ccccc1 (mixture of isomers) [Example 113]
6.14	O=C1/C(=N\c2ccc(-c3ccsc3)cc2)c2ccccc2N1c1ccccc1 [Example 304, (3Z)-1-PHENYL-3-{[4-(3-THIENYL)PHENYL]IMINO}-1,3-DIHYDRO-2H-INDOL-2-ONE]
7.26	Cc1cc(N=C2C(=O)N(c3ccsc3)c3ccccc32)ccc1Cl [Example 290]

Compound	pKi
O=C1/C(=N\c2cc(Cl)cc(Cl)c2)c2ccccc2N1Cc1cccnc1 [Example 279]	7.09
O=C1/C(=N\c2ccc(F)c(F)c2)c2ccccc2N1Cc1ccccn1 [Example 278]	6.47

Same assay, conditions: pyrimidines, cloned human receptor; read-out: Ki GalR3

Compound	pKi
CN(C)c1cc(Nc2ccc(Oc3ccccc3)cc2)nc(Nc2ccccc2)n1 [Example 64]	6.24
COc1cccc(Nc2cc(N(C)C)nc(N3CCN(CC4CCCCC4)CC3)n2)c1 [Example 145]	6.81
CN(C)c1cc(Nc2ccc(C3CCCCC3)cc2)nc(N2CCN(c3cnccn3)CC2)n1 [Example 178]	7.59
CN(C)c1cc(Nc2ccc(F)cc2)nc(N2CCN(Cc3ccccc3)CC2)n1 [Example 156]	7.21
CN(C)c1cc(Nc2ccc(Br)cc2Cl)nc(N2CCN(c3ccccn3)CC2)n1 [Example 217]	6.72
Cc1ccc(Nc2cc(N(C)C)nc(N3CCN(Cc4ccccc4)CC3)n2)cc1Cl [Example 172]	7.70
CN(C)c1cc(Nc2ccc(Cl)c(Cl)c2Cl)nc(N2CCN(Cc3ccccc3)CC2)n1 [Example 230]	7.28
CN(C)c1cc(NC2CCC(OCc3ccccc3)CC2)nc(N2CCN(Cc3ccccc3)CC2)n1 (stereo not drawn) [Example 152]	6.76
CN(C)c1cc(Nc2cccc(Cc3ccccc3)c2)nc(N2CCN(c3ccccn3)CC2)n1 [Example 216]	7.30
Cc1ccc(Nc2cc(N3CCCCC3)nc(N3CCN(c4c(C(F)(F)F)ccc[n+]4[O-])CC3)n2)cc1 [Example 249]	6.41
Cc1ccc(Nc2cc(N(C)C)nc(N3CCN(c4ccccn4)CC3)n2)cc1C [Example 190]	6.82
CN(C)c1cc(Nc2ccccc2)nc(Nc2ccccc2)n1 [Example 50]	6.16
CN(C)c1cc(Nc2cnc3ccccc3c2)nc(N2CCN(c3ccccn3)CC2)n1 [Example 132]	6.21
COc1cccc(CN2CCN(c3nc(Nc4ccc(C)cc4)cc(N(C)C)n3)CC2)c1 [Example 142]	7.55
CN(C)c1cc(Nc2ccc(Br)c(C(F)(F)F)c2)nc(N2CCN(c3ccccn3)CC2)n1 [Example 133]	7.22
Cc1ccc(Nc2cc(N(C)C)nc(N3CCN(c4cnccn4)CC3)n2)cc1C [Example 183]	7.18
COc1cccc(Nc2cc(N(C)C)nc(N3CCN(Cc4ccccc4)CC3)n2)c1 [Example 252]	7.06
CN(C)c1cc(Nc2ccc(SC(F)(F)F)c(Cl)c2)nc(N2CCN(c3ccccn3)CC2)n1 [Example 134]	7.60
COc1ccc(CCNc2nc(Nc3ccc(C)cc3)cc(N(C)C)n2)cc1 [Example 232]	6.81
Cc1ccc(Nc2cc(N(C)C)nc(N3CCN(c4ccccn4)CC3)n2)cc1Br [Example 240]	7.11

Compound	pKi
COc1cccc(Nc2cc(N(C)C)nc(NCCc3ccccc3)n2)c1 [Example 247]	6.71
CN(C)c1cc(Nc2cccc(Br)c2)nc(N2CCN(c3ccccn3)CC2)n1 [Example 243]	7.34
Cc1ccc(Nc2cc(N(C)C)nc(N3CCN(c4cccc(OCc5ccccc5)c4)CC3)n2)cc1 [Example 131]	7.70
Cc1ccc(Nc2cc(N(C)C)nc(Nc3ccc(Cl)c(Cl)c3)n2)cc1 [Example 55]	7.32
CN(C)c1cc(Nc2ccc(Cl)cc2)nc(N2CCN(c3ccccn3)CC2)n1 [Example 194]	6.61
Cc1ccc(Nc2cc(N(C)C)nc(N3CCN(Cc4ccco4)CC3)n2)cc1 [Example 231]	6.87
CN(C)c1cc(Nc2ccc(Cc3ccccc3)cc2)nc(N2CCN(c3ccccn3)CC2)n1 [Example 188]	7.57
Cc1ccc(Nc2cc(N3CCCCC3)nc(Nc3ccccc3)n2)cc1 [Example 3]	6.79
FC(F)(F)c1cccnc1N1CCN(c2nc(NC3CCCCC3)cc(N3CCCCC3)n2)CC1 [Example 35]	6.95
COc1cccc(Nc2cc(N(C)C)nc(N3CCN(CC4CCCO4)CC3)n2)c1 (stereo not drawn) [Example 233]	6.06
COc1cccc(Nc2cc(N(C)C)nc(N3CCN(c4ccc(Br)cn4)CC3)n2)c1 [Example 143]	6.84
Cc1ccc(Nc2cc(N3CCC(=O)CC3)nc(N3CCN(Cc4ccccc4)CC3)n2)cc1 [Example 184]	6.79
CN(C)c1cc(Nc2cccc(Cl)c2)nc(N2CCN(c3ccccn3)CC2)n1 [Example 224]	6.66
CN(C)c1cc(Nc2cccc(O)c2)nc(N2CCN(Cc3ccccc3)CC2)n1 [Example 155]	6.50
Cc1ccc(C)c(Nc2cc(N(C)C)nc(N3CCN(c4ccccn4)CC3)n2)c1 [Example 213]	6.78
CCCc1ccc(Nc2cc(N(C)C)nc(N3CCN(c4ccccn4)CC3)n2)cc1 [Example 209]	6.69
CN(C)c1cc(Nc2cc(F)c(F)cc2F)nc(N2CCN(c3ccccn3)CC2)n1 [Example 219]	6.25
Cc1ccc(Nc2cc(N(C)C)nc(NCCNc3ccccc3)n2)cc1 [Example 176]	6.22
COc1cccc(Nc2cc(N(C)C)nc(N3CCN(C4CCCCC4)CC3)n2)c1 [Example 163]	6.30
COc1cc(Nc2cc(N(C)C)nc(N3CCN(c4ccccn4)CC3)n2)cc(OC)c1 [Example 202]	6.13
